In ChEMBL document CHEMBL1649268, “Comparative in vitro activity profile of oritavancin against recent gram-positive clinical isolates” (2009):
≈ marks a conversion by molar mass, not a printed value.

Legend:
[1] = Antimicrobial activity against erythromycin-susceptible Streptococcus Group C clinical isolates by broth microdilution method; assay type: functional; conditions: Streptococcus sp. 'group C'
[2] = Antimicrobial activity against erythromycin-nonsusceptible Streptococcus Group C clinical isolates assessed as percent susceptible isolates by broth microdilution method; assay type: functional, Streptococcus sp. 'group C'
[3] = system: Streptococcus agalactiae; assay: Antimicrobial activity against Streptococcus agalactiae clinical isolates assessed as resistant isolates by broth microdilution method; assay type: functional
[4] = Antimicrobial activity against Streptococcus Group C clinical isolates assessed as percent susceptible isolates by broth microdilution method; assay type: functional, Streptococcus sp. 'group C'
[5] = system: Streptococcus; assay: Antimicrobial activity against erythromycin-susceptible Streptococcus Group F clinical isolates by broth microdilution method; assay type: functional
[6] = system: Streptococcus pyogenes; assay: Antimicrobial activity against erythromycin-susceptible Streptococcus pyogenes clinical isolates assessed as resistant isolates by broth microdilution method; assay type: functional
[7] = system: Streptococcus agalactiae; assay: Antimicrobial activity against Streptococcus agalactiae clinical isolates by broth microdilution method; assay type: functional
[8] = Antimicrobial activity against erythromycin-susceptible Streptococcus Group G clinical isolates by broth microdilution method; assay type: functional; conditions: Streptococcus sp. 'group G'
[9] = Antimicrobial activity against Streptococcus Group C clinical isolates by broth microdilution method; assay type: functional; conditions: Streptococcus sp. 'group C'
[10] = Antimicrobial activity against erythromycin-susceptible Streptococcus Group G clinical isolates assessed as resistant isolates by broth microdilution method; assay type: functional, Streptococcus sp. 'group G'
[11] = system: Streptococcus pneumoniae; assay: Antimicrobial activity against penicillin-susceptible Streptococcus pneumoniae clinical isolates by broth microdilution method; assay type: functional
[12] = system: Streptococcus pneumoniae; assay: Antimicrobial activity against penicillin-susceptible Streptococcus pneumoniae clinical isolates assessed as percent susceptible isolates by broth microdilution method; assay type: functional
[13] = Antimicrobial activity against erythromycin-nonsusceptible Streptococcus Group G clinical isolates by broth microdilution method; assay type: functional; conditions: Streptococcus sp. 'group G'
[14] = system: Streptococcus; assay: Antimicrobial activity against Streptococcus Group F clinical isolates assessed as percent susceptible isolates by broth microdilution method; assay type: functional
[15] = system: Streptococcus agalactiae; assay: Antimicrobial activity against erythromycin-nonsusceptible Streptococcus agalactiae clinical isolates by broth microdilution method; assay type: functional
[16] = system: Streptococcus pneumoniae; assay: Antimicrobial activity against Streptococcus pneumoniae clinical isolates assessed as percent susceptible isolates by broth microdilution method; assay type: functional
[17] = system: Streptococcus pyogenes; assay: Antimicrobial activity against erythromycin-susceptible Streptococcus pyogenes clinical isolates assessed as percent susceptible isolates by broth microdilution method; assay type: functional
[18] = system: Streptococcus agalactiae; assay: Antimicrobial activity against erythromycin-susceptible Streptococcus agalactiae clinical isolates assessed as resistant isolates by broth microdilution method; assay type: functional
[19] = system: Streptococcus pyogenes; assay: Antimicrobial activity against erythromycin-nonsusceptible Streptococcus pyogenes clinical isolates assessed as resistant isolates by broth microdilution method; assay type: functional
[20] = system: Streptococcus pyogenes; assay: Antimicrobial activity against Streptococcus pyogenes clinical isolates assessed as resistant isolates by broth microdilution method; assay type: functional
[21] = Antimicrobial activity against Streptococcus Group G clinical isolates assessed as resistant isolates by broth microdilution method; assay type: functional, Streptococcus sp. 'group G'
[22] = Antimicrobial activity against erythromycin-nonsusceptible Streptococcus Group G clinical isolates assessed as percent susceptible isolates by broth microdilution method; assay type: functional, Streptococcus sp. 'group G'
[23] = system: Streptococcus; assay: Antimicrobial activity against erythromycin-nonsusceptible Streptococcus Group F clinical isolates assessed as resistant isolates by broth microdilution method; assay type: functional
[24] = Antimicrobial activity against erythromycin-susceptible Streptococcus Group G clinical isolates assessed as percent susceptible isolates by broth microdilution method; assay type: functional, Streptococcus sp. 'group G'
[25] = system: Streptococcus agalactiae; assay: Antimicrobial activity against erythromycin-nonsusceptible Streptococcus agalactiae clinical isolates assessed as resistant isolates by broth microdilution method; assay type: functional
[26] = system: Streptococcus agalactiae; assay: Antimicrobial activity against erythromycin-susceptible Streptococcus agalactiae clinical isolates by broth microdilution method; assay type: functional
[27] = Antimicrobial activity against erythromycin-susceptible Streptococcus Group C clinical isolates assessed as resistant isolates by broth microdilution method; assay type: functional, Streptococcus sp. 'group C'
[28] = system: Streptococcus; assay: Antimicrobial activity against erythromycin-nonsusceptible Streptococcus Group F clinical isolates by broth microdilution method; assay type: functional
[29] = Antimicrobial activity against erythromycin-nonsusceptible Streptococcus Group C clinical isolates assessed as resistant isolates by broth microdilution method; assay type: functional, Streptococcus sp. 'group C'
[30] = system: Streptococcus pyogenes; assay: Antimicrobial activity against erythromycin-susceptible Streptococcus pyogenes clinical isolates by broth microdilution method; assay type: functional
[31] = system: Streptococcus pneumoniae; assay: Antimicrobial activity against Streptococcus pneumoniae clinical isolates by broth microdilution method; assay type: functional
[32] = system: Streptococcus pyogenes; assay: Antimicrobial activity against Streptococcus pyogenes clinical isolates assessed as percent susceptible isolates by broth microdilution method; assay type: functional
[33] = system: Streptococcus pyogenes; assay: Antimicrobial activity against erythromycin-nonsusceptible Streptococcus pyogenes clinical isolates by broth microdilution method; assay type: functional
[34] = Antimicrobial activity against Streptococcus Group C clinical isolates assessed as resistant isolates by broth microdilution method; assay type: functional, Streptococcus sp. 'group C'
[35] = system: Streptococcus; assay: Antimicrobial activity against Streptococcus Group F clinical isolates assessed as resistant isolates by broth microdilution method; assay type: functional
[36] = Antimicrobial activity against Streptococcus Group G clinical isolates by broth microdilution method; assay type: functional; conditions: Streptococcus sp. 'group G'
[37] = Antimicrobial activity against erythromycin-nonsusceptible Streptococcus Group C clinical isolates by broth microdilution method; assay type: functional; conditions: Streptococcus sp. 'group C'
[38] = system: Streptococcus pneumoniae; assay: Antimicrobial activity against Streptococcus pneumoniae clinical isolates assessed as resistant isolates by broth microdilution method; assay type: functional
[39] = system: Streptococcus; assay: Antimicrobial activity against erythromycin-susceptible Streptococcus Group F clinical isolates assessed as resistant isolates by broth microdilution method; assay type: functional
[40] = system: Streptococcus; assay: Antimicrobial activity against erythromycin-susceptible Streptococcus Group F clinical isolates assessed as percent susceptible isolates by broth microdilution method; assay type: functional
[41] = system: Streptococcus agalactiae; assay: Antimicrobial activity against erythromycin-susceptible Streptococcus agalactiae clinical isolates assessed as percent susceptible isolates by broth microdilution method; assay type: functional
[42] = system: Streptococcus agalactiae; assay: Antimicrobial activity against erythromycin-nonsusceptible Streptococcus agalactiae clinical isolates assessed as percent susceptible isolates by broth microdilution method; assay type: functional
[43] = system: Streptococcus pneumoniae; assay: Antimicrobial activity against penicillin-resistant Streptococcus pneumoniae clinical isolates by broth microdilution method; assay type: functional
[44] = Antimicrobial activity against erythromycin-nonsusceptible Streptococcus Group G clinical isolates assessed as resistant isolates by broth microdilution method; assay type: functional, Streptococcus sp. 'group G'
[45] = system: Streptococcus pyogenes; assay: Antimicrobial activity against Streptococcus pyogenes clinical isolates by broth microdilution method; assay type: functional
[46] = Antimicrobial activity against Streptococcus Group G clinical isolates assessed as percent susceptible isolates by broth microdilution method; assay type: functional, Streptococcus sp. 'group G'
[47] = system: Streptococcus pyogenes; assay: Antimicrobial activity against erythromycin-nonsusceptible Streptococcus pyogenes clinical isolates assessed as percent susceptible isolates by broth microdilution method; assay type: functional
[48] = system: Streptococcus agalactiae; assay: Antimicrobial activity against Streptococcus agalactiae clinical isolates assessed as percent susceptible isolates by broth microdilution method; assay type: functional
[49] = system: Streptococcus; assay: Antimicrobial activity against Streptococcus Group F clinical isolates by broth microdilution method; assay type: functional
[50] = system: Streptococcus pneumoniae; assay: Antimicrobial activity against penicillin-intermediate Streptococcus pneumoniae clinical isolates assessed as percent susceptible isolates by broth microdilution method; assay type: functional
[51] = system: Streptococcus; assay: Antimicrobial activity against erythromycin-nonsusceptible Streptococcus Group F clinical isolates assessed as percent susceptible isolates by broth microdilution method; assay type: functional
[52] = system: Streptococcus pneumoniae; assay: Antimicrobial activity against penicillin-intermediate Streptococcus pneumoniae clinical isolates by broth microdilution method; assay type: functional
[53] = Antimicrobial activity against erythromycin-susceptible Streptococcus Group C clinical isolates assessed as percent susceptible isolates by broth microdilution method; assay type: functional, Streptococcus sp. 'group C'

## CC1(C)S[C@@H]2[C@H](NC(=O)Cc3ccccc3)C(=O)N2[C@H]1C(=O)O [PENICILLIN G]
[1]
  MIC90: 0.06 µg/mL (≈ 0.179 µM)
[2]
  Activity: 100%
[3]
  Activity: 0%
[4]
  Activity: 100%
[5]
  MIC90: 0.06 µg/mL (≈ 0.179 µM)
[6]
  Activity: 0%
[7]
  MIC90: 0.06 µg/mL (≈ 0.179 µM)
[8]
  MIC90: 0.06 µg/mL (≈ 0.179 µM)
[9]
  MIC90: 0.06 µg/mL (≈ 0.179 µM)
[10]
  Activity: 0%
[11]
  MIC: ≤ 0.03 µg/mL
  MIC90: ≤ 0.03 µg/mL
[12]
  Activity: 100%
[13]
  MIC90: 0.03 µg/mL (≈ 0.0897 µM)
[14]
  Activity: 100%
[15]
  MIC90: 0.06 µg/mL (≈ 0.179 µM)
[16]
  Activity: 64%
[17]
  Activity: 100%
[18]
  Activity: 0%
[19]
  Activity: 0%
[20]
  Activity: 0%
[21]
  Activity: 0%
[22]
  Activity: 100%
[23]
  Activity: 0%
[24]
  Activity: 100%
[25]
  Activity: 0%
[26]
  MIC90: 0.06 µg/mL (≈ 0.179 µM)
[27]
  Activity: 0%
[28]
  MIC90: 0.03 µg/mL (≈ 0.0897 µM)
[29]
  Activity: 0%
[30]
  MIC90: ≤ 0.03 µg/mL
[31]
  MIC90: 2 µg/mL (≈ 5.98 µM)
[32]
  Activity: 100%
[33]
  MIC90: 0.03 µg/mL (≈ 0.0897 µM)
[34]
  Activity: 0%
[35]
  Activity: 0%
[36]
  MIC90: 0.06 µg/mL (≈ 0.179 µM)
[37]
  MIC90: 0.03 µg/mL (≈ 0.0897 µM)
[38]
  Resistant isolates: 14.7%
[39]
  Activity: 0%
[40]
  Activity: 100%
[41]
  Activity: 100%
[42]
  Activity: 100%
[43]
  MIC90: 4 µg/mL (≈ 12 µM)
[44]
  Activity: 0%
[45]
  MIC90: ≤ 0.03 µg/mL
[46]
  Activity: 100%
[47]
  Activity: 100%
[48]
  Activity: 100%
[49]
  MIC90: 0.06 µg/mL (≈ 0.179 µM)
[50]
  Activity: 0%
[51]
  Activity: 100%
[52]
  MIC90: 1 µg/mL (≈ 2.99 µM)
[53]
  Activity: 100%
